Where “and” joins values, the source holds several entries; their conditions need not be identical. Identical values can stand only once.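 Step 1: Grow cells in 96-well plates. Step 2: Expose to compound for 48 hours at 5 concentrations. Step 3: Interpolate endpoints linearly; if unreached, use highest concentration. Here, GI50 denotes the concentration required for 50% inhibition of growth. The concentration for full growth arrest is given as TGI.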
How the values were obtained:
Assay in all cases: NCI anticancer screen, dose series, 48 h
[1] = test system: MDA-N
[2] = test system: T-47D breast
[3] = test system: DLD-1 colon
[4] = test system: RXF-631 renal
[5] = test system: HOP-18 NSCLC
[6] = test system: DMS 273 small cell lung
[7] = test system: BT-549 breast
[8] = test system: SNB-78 CNS
[9] = test system: DMS 114 small cell lung

Row | SMILES | TGI [2] | TGI [7] | GI50 [2] | GI50 [7] | other results
1 | COC1=CC(=O)c2c(O)c3c(c(O)c2C1=O)OC1(Oc2c(cc4cc(C)oc(=O)c4c2O)CC1O)C3O (stereo not given) | > 100 µM | – | – | – | TGI [1]: 42.9 µM
2 | CCCCCCCCCCCCCCCCSS(C)(=O)=O | 24.1 µM | > 100 µM | – | – | TGI [3]: 37.7 µM; TGI [4]: 35.6 µM; TGI [1]: > 100 µM; TGI [5]: > 100 µM; TGI [6]: 42.7 µM
3 | COc1cc(/C=C/C(=O)c2ccc(F)cc2)ccc1OCCCCOc1cc2c(cc1OC)C(=O)N1CCCC1C=N2 (stereo not given) | > 33.2 µM | – | 1420 nM | 855 nM | –
4 | OCCNC(=S)Nc1ccc(-c2nc(N3C[C@H]4CC[C@@H](C3)O4)c3cccn3n2)cc1 | 0.0389 µM | 0.507 µM | < 10 nM | 21 nM | –
5 | O=C(CC(O)c1cccnc1)CC(O)c1cccnc1 (stereo not given) | > 73.5 µM | 25.6 µM | – | – | TGI [1]: 25.5 µM
6 | CO[C@H](C(=O)O[C@H]1C(=O)N2CCC3CCC1C32C)c1ccccc1 (stereo not given in full) | – | – | – | – | TGI [3]: > 100 µM; TGI [8]: > 100 µM; TGI [5]: > 100 µM; TGI [9]: > 100 µM
7 | Nc1nc2ccccc2c2[nH]c3ccccc3c12 | 2.91 µM | 2.58 µM | 1210 nM | 1260 nM | –
8 | C[C@@]1([C@H](OC(=O)c2cccc3ccccc23)C(N)=O)CO1 | 24.8 µM | 21.8 µM | 5310 nM | 6150 nM | –
9 | C[C@]12CC/C(=N\O)C[C@@H]1CC[C@@H]1[C@@H]2CC[C@]2(C)/C(=N/O)CC[C@@H]12 | > 100 µM | – | > 100000 nM | – | –
10 | CCN1C(=O)/C(=C\c2coc3ccccc3c2=O)SC1=S | – | – | – | – | TGI [3]: > 100 µM; TGI [8]: > 100 µM; TGI [5]: > 100 µM; TGI [6]: > 100 µM; TGI [9]: > 100 µM
11 | CC[C@@]1(O)C(=O)OCc2c1cc1n(c2=O)Cc2cc3c([N+](=O)[O-])c(O)ccc3nc2-1 | – | – | – | – | GI50 [3]: 9.41 µM; TGI [3]: > 100 µM; GI50 [8]: 6.6 µM; TGI [8]: > 100 µM; GI50 [5]: 758 nM; TGI [5]: > 100 µM; GI50 [6]: 60.5 nM; TGI [6]: 2.02 µM; GI50 [9]: 60.1 nM; TGI [9]: 1.2 µM
12 | CC(C)(C)n1nc(C2CC2)cc1NC(=O)Nc1ccc(Cl)cc1 | > 100 µM | > 100 µM | – | – | –
13 | CN(Cc1ccccc1)c1ncnc2ccc(Br)cc12 | > 100 µM | – | 22000 nM | – | –
14 | O=C1/C(=N/N=C(c2ccccc2)c2ccccc2)c2ccccc2-c2ccccc21 | > 100 µM | > 100 µM | – | – | –
15 | Clc1cc2nc[nH]c2cc1Cl | – | – | – | – | TGI [3]: > 100 µM; TGI [8]: > 100 µM; TGI [5]: > 100 µM; TGI [6]: > 100 µM; TGI [9]: > 100 µM
16 | Cc1ccccc1NC(=O)N/C(N)=N/c1nc(C)c(C)s1 | > 100 µM | > 100 µM | 448 nM | 1140 nM | –
17 | O=C1c2cccc3c([N+](=O)[O-])ccc(c23)C(=O)N1CCCCl | > 10 µM | > 10 µM | 2650 nM | 4820 nM | –
18 | COc1ccc(Nc2[nH]n(C3=Nc4ccccc4Sc4ccccc43)c(=O)c2C#N)cc1 | 9.22 µM | 3.4 µM | 696 nM | 494 nM | –

Row | SMILES | TGI [2] | TGI [7] | GI50 [2] | GI50 [7] | other results
19 | Cc1c(C)n(CC(O)CNC2CCCCC2C)c2ccccc12 (stereo not given) | 29.8 µM | 30.1 µM | 12800 nM | 16000 nM | –
20 | O=C(NCCN1CCOCC1)Nc1nc2ccc(Sc3nnc4ccc(-c5ccc(F)cc5)nn34)cc2s1 | > 59.6 µM | > 27.8 µM | > 21200 nM | 2620 nM | –
21 | Nc1ncnc2c1ncn2C1OC(CO)CC1O (stereo not given) | – | 92 µM | – | – | TGI [1]: > 100 µM
22 | C=CC1CC12C(=O)C1OC2(C)C2C(=O)c3c(O)cccc3C(=O)C12 (stereo not given) | > 100 µM | > 100 µM | 31200 nM | 53400 nM | –
23 | COc1ccc(-c2cnc(SCC(=O)c3c(C)n(C)n(-c4ccccc4)c3=O)n2-c2ccc(OC)cc2)cc1 | > 50 µM | – | > 50000 nM | – | –
24 | CC(C)C[C@H](NC(=O)[C@H](Cc1ccccc1)NC(=O)c1cnccn1)B(O)O | < 0.01 µM and 0.00411 µM | < 0.0139 µM and 0.00341 µM | 1.67 nM | 1.03 nM | –
25 | O=C(/C=C/c1ccccc1)Nc1ncc(Cc2ccccc2)s1 | > 100 µM | > 100 µM | 413 nM | 1170 nM | –
26 | Cc1cc(N(CCC#N)CCC#N)ccc1/C=C(\NC(=O)/C=C/c1ccccc1)NC(=O)Nc1ccccc1C | – | – | – | – | TGI [3]: > 100 µM; TGI [8]: > 100 µM; TGI [4]: > 100 µM; TGI [6]: > 100 µM; TGI [9]: > 100 µM
27 | O=C(/C=C/c1ccc[nH]1)c1ccccc1 | – | – | – | – | TGI [3]: > 100 µM; TGI [8]: > 100 µM; TGI [5]: > 100 µM; TGI [6]: > 100 µM; TGI [9]: > 100 µM
28 | CS(=O)(=O)c1nccc(-c2c(-c3cccc(OCc4ccccc4)c3)nc3sccn23)n1 | > 100 µM | > 100 µM | 11700 nM | 11600 nM | –
29 | Cc1ccc2oc(=O)cc(CC(=O)O)c2c1 | – | – | – | – | TGI [3]: > 100 µM; TGI [4]: > 100 µM; TGI [5]: > 100 µM; TGI [6]: > 100 µM
30 | COc1ccc(C2CC(c3ccc4ccccc4c3)=NN2/C=C2\SC(=S)N(NC(=O)Cc3ccccc3Nc3c(Cl)cccc3Cl)C2=O)cc1 (stereo not given) | 98.8 µM | > 43 µM | 788 nM | 681 nM | –
31 | Cc1cc(C)nc(NS(=O)(=O)c2ccc(Nc3nc4nc(NCc5ccccc5)nc(-c5ccc(O)cc5)c4c(=O)[nH]3)cc2)n1 | > 100 µM | 52.9 µM | 18400 nM | 10800 nM | –
32 | CCCCN1C(=O)C2c3[nH]c4ccccc4c3C3CCCCC3C2C1=O (mixture of isomers) | – | – | – | – | TGI [3]: > 100 µM; TGI [8]: 50 µM; TGI [4]: 36.4 µM; TGI [6]: 23.5 µM; TGI [9]: 44.6 µM
33 | COc1ccc(NC(=O)COc2ccccc2)c(C(N)=O)c1 | – | > 100 µM | – | 621 nM | –
34 | CN(C)C(=O)C(NCCO)c1ccccc1 (stereo not given) | > 100 µM | > 100 µM | – | – | TGI [1]: > 100 µM
35 | O=c1/c(=C/c2ccccc2O)sc2nc3ccccc3n12 | – | – | – | – | TGI [3]: > 100 µM; TGI [8]: > 100 µM; TGI [4]: > 100 µM; TGI [6]: > 100 µM; TGI [9]: 47.5 µM
36 | COc1ccc2c(c1)O/C(=C\c1ccc([N+](=O)[O-])o1)C2=O | 8.83 µM | 3.07 µM | 1400 nM | 1560 nM | –

Reference: PubChem BioAssay (NCI)
